The results in this text go back to US11318157B2, “6-6 bicyclic aromatic ring substituted nucleoside analogues for use as PRMT5 inhibitors” (Janssen Pharmaceutica NV, priority 2015, dated 2022).

In assay [1] the target is T1, PRMT5-MEP50 enzyme (Homo sapiens, UniProt O14744).
T1 construct: One virus expresses full length human PRMT5 with Flag-tag at N-terminus; Flag (N); purchased Charles River (Argenta); host or cells: insect cells (Sf9), baculovirus co-infection
Description: In vitro assay 1b: high throughput mass spectrometer assay of SAH formation, 1.25 nM enzyme, 120 min. It is filed as biochemical. Conditions: averaged values; PRMT5-MEP50, 1.25 nM enzyme, 120 min; read-out: pIC50 Assay 1b (converted). In a few lines: (§1)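 SAH product measured by RapidFire mass spectrometry after formic acid stop; IC50 from 11-point 1:2 dilutions, four-parameter fit. Reactions at 30 °C in 20 mM Tris pH 8.5 with 1 μM SAM, 0.3 μM H2A: assay 1a 10 nM PRMT5-MEP50, 60 min; assay 1b 1.25 nM, 120 min.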

The test system of assay [2] is nuclear symmetric Arginine dimethylation in A549 cells. As to the kind of experiment: PD assay (assay 2): inhibition of nuclear symmetric Arginine dimethylation (SYM10 immunohistochemistry), 48 h. The assay is classed as cell-based. Conditions: Homo sapiens. In a few lines: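 Cells seeded at 400/well overnight, then treated 48 h at 37 °C, final DMSO 0.2%. Fixed and stained with SYM10 antibody plus Alexa 488 secondary, Hoechst and CellMask, then imaged on Opera. Normalized to DMSO (high) and 10 μM reference compound (low); averaged pIC50 reported.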

For assay [3], the target named is T1, PRMT5-MEP50 enzyme. As to the kind of experiment: In vitro assay 1a: high throughput mass spectrometer assay of SAH formation, 10 nM enzyme, 60 min. The note with it: averaged values, PRMT5-MEP50, 10 nM enzyme, read-out: pIC50 Assay 1a (converted). It is filed as biochemical. In a few lines: as §1
Where [4] appears, read: A549, averaged values, PD assay, A549 cells, symmetric Arginine dimethylation, read-out: pIC50 Assay 2 (converted).

Like-named read-outs stand apart in the source and are kept apart here.

T1 sequence (O14744 whole entry): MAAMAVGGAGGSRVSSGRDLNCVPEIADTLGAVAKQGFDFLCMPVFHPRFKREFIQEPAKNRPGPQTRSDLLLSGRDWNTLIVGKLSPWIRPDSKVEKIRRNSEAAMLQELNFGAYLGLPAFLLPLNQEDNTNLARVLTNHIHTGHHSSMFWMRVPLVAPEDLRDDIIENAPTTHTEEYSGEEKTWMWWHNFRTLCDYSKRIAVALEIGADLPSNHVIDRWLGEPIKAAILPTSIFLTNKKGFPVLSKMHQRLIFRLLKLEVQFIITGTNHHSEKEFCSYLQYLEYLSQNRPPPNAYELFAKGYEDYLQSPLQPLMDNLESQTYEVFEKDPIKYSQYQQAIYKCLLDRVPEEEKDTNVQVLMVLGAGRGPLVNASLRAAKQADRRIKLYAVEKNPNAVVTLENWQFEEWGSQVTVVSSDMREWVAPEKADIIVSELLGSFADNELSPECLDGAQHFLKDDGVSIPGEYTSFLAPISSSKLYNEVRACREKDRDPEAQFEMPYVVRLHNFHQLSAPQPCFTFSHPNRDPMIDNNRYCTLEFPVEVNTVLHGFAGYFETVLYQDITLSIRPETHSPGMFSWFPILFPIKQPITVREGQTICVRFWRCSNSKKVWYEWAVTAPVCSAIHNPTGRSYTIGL
T1 sequence (Q9BQA1 whole entry partner): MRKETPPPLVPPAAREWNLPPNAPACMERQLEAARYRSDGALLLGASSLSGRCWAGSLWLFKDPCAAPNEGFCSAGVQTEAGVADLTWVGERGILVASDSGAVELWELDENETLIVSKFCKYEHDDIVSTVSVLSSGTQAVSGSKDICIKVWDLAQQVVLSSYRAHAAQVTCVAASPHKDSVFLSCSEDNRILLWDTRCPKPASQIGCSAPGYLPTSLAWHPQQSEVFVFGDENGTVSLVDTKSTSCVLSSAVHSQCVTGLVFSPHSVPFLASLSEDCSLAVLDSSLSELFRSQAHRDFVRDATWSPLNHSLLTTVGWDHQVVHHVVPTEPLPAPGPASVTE

In the case of `Nc1ncnc2c1ccn2[C@@H]1O[C@H](CCc2ccc3cc(Cl)cnc3c2)[C@@H](O)[C@H]1O` [Compound 59], the IC50 at PRMT5-MEP50 enzyme [1] was 79.4 nM; in assay [2] (setting [4]), 126 nM; on PRMT5-MEP50 enzyme [3], 25.1 nM.
In the same order, the values of `CNc1ccc2ccc(CC[C@H]3C[C@@H](n4ccc5c(C)ncnc54)[C@H](O)[C@@H]3O)cc2n1` [Compound 176] are 3.98 nM, 3.16 nM and 0.501 nM.
In the same order, the values of `O[C@@H]1[C@H](O)[C@@H](CCc2ccc3ccc(NCC4CC4)nc3c2)O[C@H]1n1ccc2c(Cl)ncnc21` [Compound 138] are 79.4 nM, 126 nM and 7.94 nM.
Consider `Nc1ncnc2c1ccn2[C@@H]1C[C@H](CCc2ccc3cc(Cl)c(NCC4CC4)nc3c2)[C@@H](O)[C@H]1O` [Compound 147], for which the IC50 is 251 nM at PRMT5-MEP50 enzyme [1], 31.6 nM in assay [2] (setting [4]) and 251 nM on PRMT5-MEP50 enzyme [3].
For the compound `Nc1ncnc2c1ccn2[C@@H]1O[C@H](COc2ccc3cc(Br)cnc3c2)[C@@H](O)[C@H]1O` [Compound 2], the IC50 at PRMT5-MEP50 enzyme [1] is 25.1 nM; in assay [2] (setting [4]) it was 39.8 nM; on PRMT5-MEP50 enzyme [3], 7.94 nM.
In the same order, the values of `CN(C[C@H]1O[C@@H](n2ccc3c(Cl)ncnc32)[C@H](O)[C@@H]1O)c1ccc2cc(Br)cnc2c1` [Compound 86] are 1000 nM, 5010 nM and 2510 nM.
The matching figures for `Cc1cc2c(N)ncnc2n1[C@@H]1O[C@H](COc2ccc3cc(Br)cnc3c2)[C@@H](O)[C@H]1O` [Compound 108]: 100 nM, 63.1 nM and 39.8 nM.
With `N#Cc1cnc2cc(OC[C@H]3O[C@@H](n4ccc5c(N)ncnc54)[C@H](O)[C@@H]3O)ccc2c1` [Compound 98], the IC50 on PRMT5-MEP50 enzyme [1] is 1580 nM; in assay [2] (setting [4]) it was 10000 nM; at PRMT5-MEP50 enzyme [3] it was 631 nM.
In the same order, the values of `Nc1ncnc2c1ccn2[C@@H]1O[C@H](COc2cc3ncccc3cc2Cl)[C@@H](O)[C@H]1O` [Compound 91] are 501 nM, 398 nM and 126 nM.
In the case of `COc1ncnc2c1ccn2[C@@H]1O[C@H](COc2ccc3ccc(N)nc3c2)[C@@H](O)[C@H]1O` [Compound 187], the values for the IC50 (on PRMT5-MEP50 enzyme [1]; in assay [2] (setting [4]); on PRMT5-MEP50 enzyme [3]) were 79.4 nM, 25.1 nM and 10 nM, respectively.
For the compound `O[C@@H]1[C@H](O)[C@@H](CCc2ccc3ccc(NCc4ccc(Cl)cc4)nc3c2)O[C@H]1n1ccc2cncnc21` [Compound 165], the IC50 is 31.6 nM on PRMT5-MEP50 enzyme [1], 20 nM in assay [2] (setting [4]) and 3.98 nM on PRMT5-MEP50 enzyme [3].
In the case of `Cc1nc(N)c2ccn([C@@H]3O[C@H](COc4ccc5cc(Br)cnc5c4)[C@@H](O)[C@H]3O)c2n1` [Compound 43], the IC50 on PRMT5-MEP50 enzyme [1] was 200 nM; in assay [2] (setting [4]) it was 316 nM; on PRMT5-MEP50 enzyme [3], 79.4 nM.
As for `Nc1ncnc2c1ccn2[C@@H]1O[C@H](COc2ccc3ccc(C(F)(F)F)nc3c2)[C@@H](O)[C@H]1O` [Compound 22], the IC50 at PRMT5-MEP50 enzyme [1] was 25100 nM; in assay [2] (setting [4]) it was about 17800 nM; at PRMT5-MEP50 enzyme [3] it was 6310 nM.
For the compound `Cc1ncnc2c1ccn2[C@@H]1O[C@H](CCc2ccc3ccc(NCc4ccc(Cl)cc4)nc3c2)[C@@H](O)[C@H]1O` [Compound 177], the IC50 on PRMT5-MEP50 enzyme [1] was 31.6 nM; in assay [2] (setting [4]) it was 63.1 nM; at PRMT5-MEP50 enzyme [3], 10 nM.
The matching figures for `Nc1ncnc2c1ccn2[C@@H]1O[C@H](COc2ccc3ccncc3c2)[C@@H](O)[C@H]1O` [Compound 13]: 2000 nM, 15800 nM and 794 nM.
Consider `Nc1ncnc2c1ccn2[C@@H]1O[C@H](C#Cc2ccc3cccnc3c2)[C@@H](O)[C@H]1O` [Compound 63], for which the results for the IC50 (on PRMT5-MEP50 enzyme [1]; in assay [2] (setting [4]); at PRMT5-MEP50 enzyme [3]) were 126 nM, 200 nM and 25.1 nM, respectively.
On to `CC(C)Nc1ccc2ccc(CC[C@H]3C[C@@H](n4ccc5c(N)ncnc54)[C@H](O)[C@@H]3O)cc2n1` [Compound 149], for which the IC50 on PRMT5-MEP50 enzyme [1] was 5.01 nM; in assay [2] (A549, read-out: pIC50 Assay 2 (converted)), 1 nM; at PRMT5-MEP50 enzyme [3], 0.316 nM.
Regarding `COc1ccnc2cc(OC[C@H]3O[C@@H](n4ccc5c(N)ncnc54)[C@H](O)[C@@H]3O)ccc12` [Compound 104], the IC50 is 15800 nM on PRMT5-MEP50 enzyme [1], over 10000 nM in assay [2] (setting [4]) and 5010 nM at PRMT5-MEP50 enzyme [3].
The matching figures for `O[C@@H]1[C@H](O)[C@@H](COc2ccc3ccc(NCc4ccc(Cl)cc4)nc3c2)O[C@H]1n1ccc2c(Cl)ncnc21` [Compound 131]: 63.1 nM, about 66.1 nM and 7.94 nM.
The matching figures for `CNc1ccc2ccc(OC[C@H]3O[C@@H](n4ccc5c(N)ncnc54)[C@H](O)[C@@H]3O)cc2n1` [Compound 185]: 7.94 nM, 50.1 nM and 3.98 nM.
The matching figures for `Nc1ccc2ccc(OC[C@H]3O[C@@H](n4ccc5cncnc54)[C@H](O)[C@@H]3O)cc2n1` [Compound 163]: 5.01 nM, 6.31 nM and 0.501 nM.
Take `Cc1cc2c(N)ncnc2n1[C@@H]1O[C@H](COc2ccc3cccnc3c2)[C@@H](O)[C@H]1O` [Compound 83]: the IC50 at PRMT5-MEP50 enzyme [1] was 126 nM; in assay [2] (setting [4]), 200 nM; at PRMT5-MEP50 enzyme [3], 39.8 nM.
In the case of `Nc1ncnc2c1ccn2[C@@H]1O[C@H](COc2ccc3cccnc3c2I)[C@@H](O)[C@H]1O` [Compound 40], the IC50 was 1580 nM at PRMT5-MEP50 enzyme [1], about 12000 nM in assay [2] (setting [4]) and 2510 nM on PRMT5-MEP50 enzyme [3].
In the same order, the values of `Cc1nc(N)c2ccn([C@@H]3O[C@H](CNc4ccc5cc(Br)cnc5c4)[C@@H](O)[C@H]3O)c2n1` [Compound 53] are 50.1 nM, 50.1 nM and 39.8 nM.
The matching figures for `Nc1ncnc2c1ccn2[C@@H]1O[C@H](CNc2ccc3cc(Br)cnc3c2)[C@@H](O)[C@H]1O` [Compound 51]: 15.8 nM, about 15.5 nM and 10 nM.
For `Cc1cnc2cc(OC[C@H]3O[C@@H](n4ccc5c(N)ncnc54)[C@H](O)[C@@H]3O)ccc2c1` [Compound 217], the IC50 was 20 nM on PRMT5-MEP50 enzyme [1], 39.8 nM in assay [2] (setting [4]) and 5.01 nM on PRMT5-MEP50 enzyme [3].
As to `Nc1ccc2ccc(CC[C@H]3O[C@@H](n4ccc5c(Cl)ncnc54)[C@H](O)[C@@H]3O)cc2n1` [Compound 133], the IC50 at PRMT5-MEP50 enzyme [1] is 6.31 nM; in assay [2] (setting [4]), 6.31 nM; on PRMT5-MEP50 enzyme [3], 0.631 nM.
For `Nc1ncnc2c1ccn2[C@@H]1O[C@H](COc2ccc3ncccc3c2)[C@@H](O)[C@H]1O` [Compound 11], the IC50 at PRMT5-MEP50 enzyme [1] was 7940 nM; in assay [2] (setting [4]) it was over 10000 nM; on PRMT5-MEP50 enzyme [3] it was 3160 nM.
For `Nc1ncnc2c1ccn2[C@@H]1O[C@H](COc2ccc3ccnnc3c2)[C@@H](O)[C@H]1O` [Compound 69], the IC50 was 3160 nM on PRMT5-MEP50 enzyme [1], over 20000 nM in assay [2] (setting [4]) and 631 nM at PRMT5-MEP50 enzyme [3].
In the same order, the values of `Nc1ncnc2c1ncn2[C@@H]1O[C@H](COc2cc3ncc(Br)cc3cc2Cl)[C@@H](O)[C@H]1O` [Compound 219] are over 100000 nM, 7940 nM and 3980 nM.
In the same order, the values of `Cc1ccc2ccc(OC[C@H]3O[C@@H](n4ccc5c(N)ncnc54)[C@H](O)[C@@H]3O)cc2n1` [Compound 21] are 1580 nM, 5010 nM and 1260 nM.
In the same order, the values of `O[C@@H]1[C@@H](CCc2ccc3ccc(NCc4ccccc4)nc3c2)C[C@@H](n2ccc3cncnc32)[C@@H]1O` [Compound 172] are 3.98 nM, under 1.17 nM and 0.501 nM.
Regarding `Nc1ncnc2c1ccn2[C@@H]1O[C@H](COc2ccc3c(Cl)ccnc3c2)[C@@H](O)[C@H]1O` [Compound 33], the IC50 was 794 nM on PRMT5-MEP50 enzyme [1], 501 nM in assay [2] (setting [4]) and 158 nM at PRMT5-MEP50 enzyme [3].
The matching figures for `O[C@@H]1[C@H](O)[C@@H](COc2ccc3c(Cl)ccnc3c2)O[C@H]1n1ccc2c(Cl)ncnc21` [Compound 34]: over 100000 nM, over 20000 nM and 7940 nM.
As to `Nc1ncnc2c1ccn2[C@@H]1O[C@H](COc2ccc3cccnc3c2Cl)[C@@H](O)[C@H]1O` [Compound 41], the results for the IC50 (at PRMT5-MEP50 enzyme [1]; in assay [2] (setting [4]); at PRMT5-MEP50 enzyme [3]) were 10000 nM, over 10000 nM and 6310 nM, respectively.
The matching figures for `Nc1ncnc2c1ccn2[C@@H]1O[C@H](COc2ccc3ccc(NCc4ccccc4)nc3c2)[C@@H](O)[C@H]1O` [Compound 107]: 3.98 nM, 3.98 nM and 1.26 nM.
Take `O[C@@H]1[C@H](O)[C@@H](COc2ccc3ccc(NCC4CC4)nc3c2)O[C@H]1n1ccc2cncnc21` [Compound 170]: the figures for the IC50 (on PRMT5-MEP50 enzyme [1]; in assay [2] (setting [4]); on PRMT5-MEP50 enzyme [3]) were 63.1 nM, 79.4 nM and 6.31 nM, respectively.
In the same order, the values of `CC(C)C(=O)O[C@@H]1[C@H](OC(=O)C(C)C)[C@@H](COc2ccc3ccc(C(F)(F)F)nc3c2)O[C@H]1n1ccc2c(N)ncnc21` [Compound 72] are over 100000 nM, over 10000 nM and over 10000 nM.
